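In this assay, cells in 96-well plates receive the compound at five concentrations for 48 hours. Endpoints are linearly interpolated between the surrounding concentrations. The concentration for full growth arrest is given as TGI.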
Assays:
Assay in all cases: DTP human tumour cell line panel, 48 h
NCI/ADR-RES ovarian = system: NCI/ADR-RES ovarian
RXF 393 renal = system: RXF 393 renal
HT29 colon = system: HT29 colon
SNB-75 CNS = system: SNB-75 CNS
MDA-MB-231 breast = system: MDA-MB-231 breast
U251 CNS = system: U251 CNS
HL-60(TB) leukemia = system: HL-60(TB) leukemia
SR leukemia = system: SR leukemia
MDA-N = system: MDA-N
TK-10 renal = system: TK-10 renal
SW-620 colon = system: SW-620 colon
K-562 leukemia = system: K-562 leukemia
HCT-15 colon = system: HCT-15 colon
UACC-257 melanoma = system: UACC-257 melanoma
CAKI-1 renal = system: CAKI-1 renal
A549 NSCLC = system: A549 NSCLC
KM12 colon = system: KM12 colon
OVCAR-8 ovarian = system: OVCAR-8 ovarian
MCF7 breast = system: MCF7 breast
NCI-H23 lung = system: NCI-H23 lung
MOLT-4 leukemia = system: MOLT-4 leukemia
UO-31 renal = system: UO-31 renal
HOP-62 NSCLC = system: HOP-62 NSCLC
786-0 renal = system: 786-0 renal
SK-MEL-5 melanoma = system: SK-MEL-5 melanoma
LOX IMVI melanoma = system: LOX IMVI melanoma
SF-295 CNS = system: SF-295 CNS
CCRF-CEM leukemia = system: CCRF-CEM leukemia
OVCAR-3 ovarian = system: OVCAR-3 ovarian
UACC-62 melanoma = system: UACC-62 melanoma
M14 melanoma = system: M14 melanoma
SNB-19 CNS = system: SNB-19 CNS
T-47D breast = system: T-47D breast
MDA-MB-435 = system: MDA-MB-435
PC-3 prostate = system: PC-3 prostate
HOP-92 NSCLC = system: HOP-92 NSCLC
SN12C renal = system: SN12C renal
IGROV1 ovarian = system: IGROV1 ovarian
OVCAR-4 ovarian = system: OVCAR-4 ovarian
ACHN renal = system: ACHN renal
EKVX NSCLC = system: EKVX NSCLC
A498 renal = system: A498 renal
DU-145 prostate = system: DU-145 prostate
SK-OV-3 ovarian = system: SK-OV-3 ovarian
MALME-3M melanoma = system: MALME-3M melanoma
BT-549 breast = system: BT-549 breast
NCI-H460 lung = system: NCI-H460 lung
HS 578T breast = system: HS 578T breast
HCT-116 colon = system: HCT-116 colon
SK-MEL-2 melanoma = system: SK-MEL-2 melanoma
NCI-H226 lung = system: NCI-H226 lung
RPMI-8226 leukemia = system: RPMI-8226 leukemia
HCC-2998 colon = system: HCC-2998 colon
SF-268 CNS = system: SF-268 CNS
COLO 205 colon = system: COLO 205 colon
NCI-H522 lung = system: NCI-H522 lung
OVCAR-5 ovarian = system: OVCAR-5 ovarian
SK-MEL-28 melanoma = system: SK-MEL-28 melanoma

## O=c1[nH]c(-c2cccc(F)c2)nc2ccccc12
NCI/ADR-RES ovarian
  TGI: > 100 µM
RXF 393 renal
  TGI: 89.4 µM
HT29 colon
  TGI: > 100 µM
SNB-75 CNS
  TGI: 62.7 µM
MDA-MB-231 breast
  TGI: > 65.9 µM
U251 CNS
  TGI: > 100 µM
HL-60(TB) leukemia
  TGI: > 100 µM
SR leukemia
  TGI: > 100 µM
MDA-N
  TGI: > 100 µM
TK-10 renal
  TGI: 58.9 µM
SW-620 colon
  TGI: > 100 µM
K-562 leukemia
  TGI: > 100 µM
HCT-15 colon
  TGI: > 100 µM
UACC-257 melanoma
  TGI: > 100 µM
CAKI-1 renal
  TGI: > 100 µM
A549 NSCLC
  TGI: > 100 µM
KM12 colon
  TGI: > 100 µM
OVCAR-8 ovarian
  TGI: > 93.1 µM
MCF7 breast
  TGI: > 100 µM
NCI-H23 lung
  TGI: > 65.8 µM
MOLT-4 leukemia
  TGI: > 100 µM
UO-31 renal
  TGI: > 67.9 µM
HOP-62 NSCLC
  TGI: 52.4 µM
786-0 renal
  TGI: > 100 µM
SK-MEL-5 melanoma
  TGI: > 100 µM
LOX IMVI melanoma
  TGI: > 100 µM
SF-295 CNS
  TGI: > 72.7 µM
CCRF-CEM leukemia
  TGI: > 100 µM
OVCAR-3 ovarian
  TGI: > 100 µM
UACC-62 melanoma
  TGI: > 67.3 µM
M14 melanoma
  TGI: > 100 µM
SNB-19 CNS
  TGI: 47.2 µM
T-47D breast
  TGI: > 100 µM
MDA-MB-435
  TGI: > 100 µM
PC-3 prostate
  TGI: > 100 µM
HOP-92 NSCLC
  TGI: > 72 µM
SN12C renal
  TGI: > 92 µM
IGROV1 ovarian
  TGI: > 100 µM
OVCAR-4 ovarian
  TGI: > 65.9 µM
ACHN renal
  TGI: > 68.7 µM
EKVX NSCLC
  TGI: > 100 µM
A498 renal
  TGI: > 73.2 µM
DU-145 prostate
  TGI: > 100 µM
SK-OV-3 ovarian
  TGI: > 61.3 µM
MALME-3M melanoma
  TGI: > 100 µM
BT-549 breast
  TGI: > 68.8 µM
NCI-H460 lung
  TGI: > 100 µM
HS 578T breast
  TGI: > 78.5 µM
HCT-116 colon
  TGI: > 57.7 µM
SK-MEL-2 melanoma
  TGI: > 100 µM
NCI-H226 lung
  TGI: > 100 µM
RPMI-8226 leukemia
  TGI: > 100 µM
HCC-2998 colon
  TGI: > 100 µM
SF-268 CNS
  TGI: > 100 µM
COLO 205 colon
  TGI: > 100 µM
NCI-H522 lung
  TGI: > 100 µM
OVCAR-5 ovarian
  TGI: > 100 µM
SK-MEL-28 melanoma
  TGI: > 100 µM

## Clc1ccc(Nc2nc(Cl)c3[nH]cnc3n2)cc1Cl
NCI/ADR-RES ovarian
  TGI: > 100 µM
RXF 393 renal
  TGI: 81.2 µM
HT29 colon
  TGI: 43.9 µM
SNB-75 CNS
  TGI: 52.3 µM
MDA-MB-231 breast
  TGI: 51.9 µM
U251 CNS
  TGI: > 100 µM
HL-60(TB) leukemia
  TGI: 47.7 µM
SR leukemia
  TGI: 55.7 µM
MDA-N
  TGI: > 100 µM
TK-10 renal
  TGI: > 100 µM
SW-620 colon
  TGI: > 100 µM
K-562 leukemia
  TGI: > 100 µM
HCT-15 colon
  TGI: 87.5 µM
UACC-257 melanoma
  TGI: 83.3 µM
CAKI-1 renal
  TGI: 16.6 µM
A549 NSCLC
  TGI: > 100 µM
KM12 colon
  TGI: 64.7 µM
OVCAR-8 ovarian
  TGI: > 100 µM
MCF7 breast
  TGI: > 100 µM
NCI-H23 lung
  TGI: 73.2 µM
MOLT-4 leukemia
  TGI: 61.3 µM
UO-31 renal
  TGI: 66.6 µM
HOP-62 NSCLC
  TGI: 52.5 µM
786-0 renal
  TGI: 30.8 µM
SK-MEL-5 melanoma
  TGI: 52.1 µM
LOX IMVI melanoma
  TGI: 34.1 µM
SF-295 CNS
  TGI: 79.7 µM
CCRF-CEM leukemia
  TGI: 48.2 µM
OVCAR-3 ovarian
  TGI: 61 µM
UACC-62 melanoma
  TGI: > 100 µM
M14 melanoma
  TGI: > 100 µM
SNB-19 CNS
  TGI: > 100 µM
T-47D breast
  TGI: 80.4 µM
MDA-MB-435
  TGI: 80.3 µM
PC-3 prostate
  TGI: 66.2 µM
HOP-92 NSCLC
  TGI: 53.4 µM
SN12C renal
  TGI: > 100 µM
IGROV1 ovarian
  TGI: > 100 µM
OVCAR-4 ovarian
  TGI: > 100 µM
ACHN renal
  TGI: > 100 µM
EKVX NSCLC
  TGI: 49.1 µM
A498 renal
  TGI: 34.9 µM
DU-145 prostate
  TGI: > 100 µM
SK-OV-3 ovarian
  TGI: > 100 µM
MALME-3M melanoma
  TGI: > 100 µM
BT-549 breast
  TGI: 79.1 µM
NCI-H460 lung
  TGI: 62.7 µM
HS 578T breast
  TGI: 56.3 µM
HCT-116 colon
  TGI: 86.7 µM
SK-MEL-2 melanoma
  TGI: 59.5 µM
NCI-H226 lung
  TGI: > 100 µM
RPMI-8226 leukemia
  TGI: 83 µM
HCC-2998 colon
  TGI: 31.1 µM
SF-268 CNS
  TGI: 91.3 µM
COLO 205 colon
  TGI: 37.9 µM
NCI-H522 lung
  TGI: 56.7 µM
OVCAR-5 ovarian
  TGI: > 100 µM

From PubChem BioAssay (NCI)
